In the supplement of paper PMC13380429:

Experiments:
Conditions in all cases: 72 h
Vero E6 [1] = test: drug sensitivity score (DSS) for viability; higher = more toxic; extreme values may be limits of the assay
Calu-3 [2] = test: as above
HepG2 [3] = test: as above
U2OS [4] = test: as above
Caco-2 [5] = test: as above
Vero E6 [6] = test: cell viability relative to DMSO; higher = less toxic
Calu-3 [7] = test: as above
HepG2 [8] = test: as above
U2OS [9] = test: as above
Caco-2 [10] = test: as above
Vero E6 [11] = test: relative viability EC50 (midpoint between 100% and the lowest measured viability); higher = less toxic
Calu-3 [12] = test: as above
U2OS [13] = test: as above
HepG2 [14] = test: as above
Caco-2 [15] = test: as above

| Structure (SMILES) | drug sensitivity score (Vero E6 [1]) | drug sensitivity score (Calu-3 [2]) | drug sensitivity score (HepG2 [3]) | drug sensitivity score (U2OS [4]) | drug sensitivity score (Caco-2 [5]) | cell viability (Vero E6 [6]; 1 nM) | cell viability (Vero E6 [6]; 10 nM) | cell viability (Vero E6 [6]; 100 nM) | cell viability (Vero E6 [6]; 1000 nM) | cell viability (Vero E6 [6]; 10000 nM) | cell viability (Calu-3 [7]; 1 nM) | cell viability (Calu-3 [7]; 10 nM) | cell viability (Calu-3 [7]; 100 nM) | cell viability (Calu-3 [7]; 1000 nM) | cell viability (Calu-3 [7]; 10000 nM) | cell viability (HepG2 [8]; 1 nM) | cell viability (HepG2 [8]; 10 nM) | cell viability (HepG2 [8]; 100 nM) | cell viability (HepG2 [8]; 1000 nM) | cell viability (HepG2 [8]; 10000 nM) | cell viability (U2OS [9]; 1 nM) | cell viability (U2OS [9]; 10 nM) | cell viability (U2OS [9]; 100 nM) | cell viability (U2OS [9]; 1000 nM) | cell viability (U2OS [9]; 10000 nM) | cell viability (Caco-2 [10]; 1 nM) | cell viability (Caco-2 [10]; 10 nM) | cell viability (Caco-2 [10]; 100 nM) | cell viability (Caco-2 [10]; 1000 nM) | cell viability (Caco-2 [10]; 10000 nM) | relative viability EC50 (Vero E6 [11]) | relative viability EC50 (Calu-3 [12]) | relative viability EC50 (U2OS [13]) | relative viability EC50 (HepG2 [14]) | relative viability EC50 (Caco-2 [15]) |
| --- | --- | --- | --- | --- | --- | --- | --- | --- | --- | --- | --- | --- | --- | --- | --- | --- | --- | --- | --- | --- | --- | --- | --- | --- | --- | --- | --- | --- | --- | --- | --- | --- | --- | --- | --- |
| Cc1c(C2CCN(CCc3ccccc3)CC2)noc1-c1ccc(Cl)cc1 | 0 | 0.3 | 1.9 | 0 | 1.5 | 105% | 99.4% | 103% | 98.3% | 90.3% | 99.9% | 104% | 101% | 108% | 80.9% | 102% | 107% | 96.5% | 95.8% | 71.9% | 102% | 98.7% | 101% | 97.3% | 96.6% | 103% | 106% | 99.9% | 98.8% | 68.6% | > 10 µM | > 10 µM | > 10 µM | – | – |
| O=C(NOCCO)c1ccc2cncn2c1Nc1ccc(I)cc1F [GDC-0623] | 16.8 | 19.7 | 31.7 | 8.6 | 13.8 | 98.4% | 81.9% | 55.5% | 49.9% | 49.3% | 102% | 78.5% | 52.4% | 36.4% | 31.1% | 91.8% | 51.2% | 23.7% | 19.6% | 12.4% | 95.1% | 92.6% | 93.4% | 62% | 25.5% | 93.5% | 79.5% | 64.6% | 61.8% | 58.2% | 0.017 µM | 0.034 µM | 0.916 µM | 0.0088 µM | – |
| O=C(c1c(F)ccc(NS(=O)(=O)N2CC[C@@H](F)C2)c1F)c1c[nH]c2ncc(-c3cnc(C4CC4)nc3)cc12 [PLX8394] | 0 | 0 | 0.6 | 0 | 1.9 | 102% | 96.6% | 104% | 98.8% | 113% | 105% | 105% | 83.6% | 104% | 114% | 91% | 90.5% | 106% | 101% | 79.1% | 96% | 105% | 104% | 107% | 93.3% | 102% | 99.2% | 94.4% | 91.7% | 71.8% | > 10 µM | > 10 µM | > 10 µM | > 10 µM | – |
| O=c1cc(-c2ccc(O)c(O)c2)oc2cc(O)cc(O)c12 [luteolin] | 0 | 0.9 | 0 | 0.4 | 1.1 | 99.5% | 105% | 94.7% | 101% | 95.3% | 105% | 123% | 107% | 106% | 70.9% | 111% | 99.4% | 117% | 97.5% | 90.8% | 99.9% | 105% | 99.9% | 105% | 79.4% | 92.8% | 98.1% | 95.9% | 94.5% | 79.3% | > 10 µM | – | > 10 µM | > 10 µM | > 10 µM |
| COc1cc([C@@H]2c3cc4c(cc3[C@@H](O[C@@H]3O[C@@H]5CO[C@@H](C)O[C@H]5[C@H](O)[C@H]3O)[C@H]3COC(=O)[C@H]23)OCO4)cc(OC)c1O [etoposide] | 0.7 | 5.3 | 7.2 | 3.8 | 2.7 | 104% | 105% | 103% | 98.7% | 80.2% | 83.1% | 92.5% | 90.4% | 81.1% | 40.7% | 111% | 85.2% | 96.3% | 65.6% | 43.1% | 100% | 104% | 99.9% | 94.5% | 46.1% | 93.5% | 97.1% | 92.2% | 97.7% | 54.2% | > 10 µM | 1.52 µM | 2.32 µM | 0.701 µM | – |
